Measurements from patent EP4434996A1, “MICELLES IN CANCER TREATMENT” (Commissariat à l'Energie Atomique et aux Energies …, priority 2023, dated 2024).
“Also recorded” adds a separate entry of the source.

Experiments:
[1] = Detection of singlet oxygen with DPBF under 740 nm irradiation; type: physicochemical
Procedure: Preparation of DPBF@C18-PEG2k and TPBC@C18-PEG2k. To a solution of C18-Fc-PEG2k (10 mg mL^-1) in water (1 mL) was added a solution of TPBC (bacteriochlorin) or DPBF (1,3-diphenylisobenzofuran) (12.5 µL, 1 mg mL^-1) in chloroform (1 mL). The mixture was sonicated using an ultrasound sonicator probe (power 40%, 10 min, pulse) allowing TPBC or DPBF to be gradually encapsulated by evaporation of chloroform via heating of the probe. The resulting TPBC/DPBF@C18-Fc-PEG2k colloidal suspension was filtered on 0.45 µm nylon membrane to eliminate any free TPBC or DPBF from the medium.
Preparation of TPBC-DPBF@C18-PEG2k. To a solution of C18-Fc-PEG2k (10 mg mL^-1) in water (1 mL) was added a solution of TPBC (12.5 µL, 1 mg mL^-1) in chloroform (1 mL). The mixture was sonicated using an ultrasound sonicator probe (power 40%, 10 min, pulse) allowing TPBC to be gradually encapsulated by evaporation of chloroform via heating of the probe. […]
1,3-Diphenylisobenzofuran (DPBF) is a reagent for detecting singlet oxygen. […] The reaction was monitored using UV-vis spectroscopy (Fig. 8B). […]
First, we ensured that both TPBC and DPBF could be encapsulated into our C18-PEG2k micelles individually. […] TPBC-DPBF@C18-PEG2k was then irradiated under 740 nm light and the photoreaction was monitored by UV-vis spectroscopy every 20 sec (Fig. 9C).

[2] = Solubility in water by UV measurement; type: physicochemical; conditions: without micelles

| time to complete degradation of DPBF ([1]; DPBF and TPBC in DMSO) | stability of DPBF under NIR light ([1]; in DMSO, several minutes, without TPBC) | SMILES | solubility in water [2] |
| --- | --- | --- | --- |
| 60 s |  | c1ccc(-c2c3nc(c(-c4ccccc4)c4ccc([nH]4)c(-c4ccccc4)c4nc(c(-c5ccccc5)c5ccc2[nH]5)CC4)CC3)cc1 [TPBC, tetraphenylbacteriochlorin] | not soluble in water; also recorded: insoluble in water |
|  | no alteration was observed | c1ccc(-c2oc(-c3ccccc3)c3ccccc23)cc1 [DPBF, 1,3-diphenylisobenzofuran] | not soluble in water; also recorded: insoluble in water |
